Measurements published in publication PMC5970127, “In vivo evaluation of two tissue transglutaminase PET tracers in an orthotopic tumour xenograft model” (EJNMMI Research, 2018).
“And” between values parts separate entries of the source, which are not always exact repeats. Equal entries are not always repeated. Where two headings read alike, the source gives them in different places.

What was measured:
[1] = Plasma metabolite analysis after i.v. administration in SCID mice; format: in vivo; conditions: mouse plasma
Description: Healthy female SCID mice (20–25 g, Harlan, Horst, The Netherlands) were injected in the tail vein with [^11C]1 or [^18F]2 (20 MBq) under isoflurane anaesthesia (2% in O2 at 1 L · min^−1). Mice were sacrificed at 15 and 45 min post injection (n = 3 for each time-point) by cervical dislocation. Blood (~ 0.5–1 mL) was withdrawn by heart puncture, collected in a heparin-coated tube and centrifuged at 5000 RPM to separate plasma from blood cells. Solid phase extraction (SPE) cartridges (tC18, Waters, Milford, MA, USA) were preconditioned by washing with methanol (MeOH, 6 mL) and H2O (two times 6 mL). Plasma (~ 0.2 mL) was mixed with 0.15 M HCl (0.2 mL) and loaded on the tC18 cartridge. The polar fraction was obtained by elution of the cartridge with H2O (3 mL), the non-polar fraction by subsequent elution with MeOH (1.5 mL) and H2O (0.5 mL). Both fractions were counted for radioactivity in a gamma counter. The percentage of intact tracer in the non-polar fraction was determined by online and offline HPLC analysis (Gemini C18 column (5 μm, 10 mm × 250 mm, Phenomenex, Torrance, CA, USA) with eluent MeCN (A) and 0.1% TFA acid in H2O (B) as eluent according to the following schemes; For [^11C]1: 0 min, 70% B at 0.25 mL · min^−1; 0.5 min, 70% B at 3.5 mL · min^−1; 9.0 min, 10% B at 3.5 mL · min^−1; 12.0 min, 10% B at 3.5 mL · min^−1; 12.5 min, 70% B at 3.5 mL · min^−1; 14.5 min, 70% B at 3.5 mL · min^−1 and 15 min, 70% B at 0.25 mL · min^−1 or for [^18F]2: 0 min, 80% B at 0.25 mL · min^−1; 0.5 min, 80% B at 3 mL · min^−1; 6.0 min, 30% B at 3 mL · min^−1; 12.0 min, 30% B at 3 mL · min^−1; 12.5 min, 80% B at 3.0 mL · min^−1; 14.5 min, 80% B at 3.0 mL · min^−1; 15.0 min, 80% B at 0.25 mL · min^−1 (Rt = 11.5 min). Offline HPLC analysis was performed when the online HPLC analysis yielded a low signal to noise ratio. For offline analysis, HPLC fractions (30 s per fraction) were collected and counted for radioactivity (WIZARD 2480 Compugamma, PerkinElmer, Waltham, MA, USA). The counting results were plotted to generate the corresponding HPLC chromatograms. Data were expressed as percentage of intact tracer, polar metabolites, and non-polar metabolites ± standard deviation.
To healthy SCID mice (n = 2) 10 MBq [^18F]2 diluted with 50 μg (2.5 mg · kg^−1) of unlabelled 2 was administered, corresponding to a molar activity of 0.14 GBq · μmol^−1. At 30 min post injection, animals were sacrificed under isoflurane anaesthesia (2% in O2 at 1 L · min^−1) by cervical dislocation. Blood (~ 1 mL) was collected by heart puncture. Blood plasma was separated using a SPE procedure as described in the “Metabolite analysis” section (vide supra). The non-polar fraction was analysed by HPLC and Liquid chromatography–tandem mass spectrometry (LC-MS/MS) in multiple reaction monitoring (MRM) mode. […]

[2] = system: MDA-MB-231 tumour sections; design: method as in PMID 27067043, PMID 27837727; conditions: cited from earlier work
MDA-MB-231 tumour = experiment: Dynamic PET imaging in orthotopic MDA-MB-231 tumour xenograft model; format: in vivo, SCID mice
Description: Severe combined immunodeficient (SCID) female mice (6–8 weeks, 20 to 25 g, Charles River, Wilmington, MA, USA) were housed in sterile cages under standard conditions (24 °C, 60% relative humidity, 12-h light/dark cycles) and provided with water and food ad libitum. MDA-MB-231 cells (1 × 10^6) were injected orthotopically in the fat pad of the second thoracic mammary glands (bilateral). Tumour dimensions were measured using a Vernier calliper, and tumour volume was calculated using the formula (x^2 y)/2 (x and y being the width and length, respectively) for an ellipsoid. At 8 weeks after MDA-MB-231 cell injection, tumours reached the target size of 200 mm^3. This study was performed according to national regulations and was approved by the Animal Experimentation Ethics Committee of the VU University Medical Center.
Dynamic PET imaging was performed using dedicated small animal NanoPET/CT and NanoPET/MR scanners (Mediso Ltd., Hungary, Budapest) with identical PET components. Mice (n = 4 per group) were anaesthetized with 4 and 2% isoflurane in 1 L · min^−1 oxygen for induction and maintenance, respectively. Mice were positioned on the scanner bed, and the respiratory rate was monitored for the duration of the scan, adjusting anaesthesia when required. A dynamic PET scan was acquired immediately after intravenous (i.v.) administration (tail vein) of 5 MBq [^11C]1 or [^18F]2. For blocking experiments, mice were injected subcutaneously with ERW1041E (50 mg · kg^−1) dissolved in 20% dimethylsulfoxide in 0.9% saline, 30 min prior to the tracer injection. An additional blocking experiment was performed by co-administration of compound 2 (50 μg, 75 nmol) and [^18F]2, which corresponded with a molar activity of 0.07 GBq · μmol^−1. PET scans were acquired in list mode and rebinned into the following frame sequence: 4 × 5, 4 × 10, 2 × 30, 3 × 60, 2 × 300, 1 × 600, 1 × 900 and 1 × 1200 s. In addition, a static [^18F]2-fluoro-2-deoxy-D-glucose ([^18F]FDG) scan was acquired for 30 min immediately after [^18F]FDG administration (10 MBq, tail vein). At least a 24-h time interval between [^18F]FDG scans and [^11C]1 or [^18F]2 scans was maintained. Reconstruction was performed with a fully 3-dimensional (3D) reconstruction algorithm using four iterations and six subsets, resulting in an isotropic 0.4-mm voxel dimension. Images were analysed using the freely available AMIDE-software version 1.0.4 (retrieved from https://sourceforge.net/projects/amide/files/amide/1.0.4). Regions of interest (ROIs) were drawn around the tumour tissue and leg muscle. Results are expressed as percentage injected dose per gram (%ID/g). Error bars indicate standard deviation. After PET scanning experiments, animals were sacrificed by cervical dislocation, tumours were isolated, and stored at − 80 °C until further use.

activated FXIII = system: activated FXIII; design: method as in PMID 27067043, PMID 27837727; conditions: cited from earlier work
[3] = cited from earlier work; for Intact (%) / Non-polar (%) / Polar (%): rat plasma
TG2 [4] = system: TG2; design: method as in PMID 27067043, PMID 27837727; conditions: TG2 inhibition; cited from earlier work
TG2 [5] = biological target: TG2; design: method as in PMID 17149878; conditions: cited from earlier work
TG2 [6] = system: TG2; design: method as in PMID 24152195; conditions: cited from earlier work
[7] = 15 min after i.v., % of total blood plasma activity ± SD
[8] = animals sacrificed at 60 min post injection (listed under 45 min)

Intact (%) [1, 7]	Intact (%) ([1]; 45 min after i.v.)	SMILES	Binding to MDA-MB-231 tumour sections (in vitro autoradiography) [2]	Affinity for activated FXIII (activated FXIII)	Intact (%) ([3]; 15 min after i.v.)	Non-polar (%) ([3]; 15 min after i.v.)	Polar (%) ([3]; 15 min after i.v.)	IC50 (TG2 [4])	also measured
20 ± 1%	3 ± 2%	COC(=O)[C@H](CC(C)C)NC(=O)[C@@H]1CCCN1C(=O)[C@@H](NC(=O)[C@H](CCC(=O)C=[N+]=[N-])NC(=O)CO/N=C/c1ccc([18F])cc1)C(C)C [[^18F]2, (S)-methyl 2-((S)-1-((7S,10S,E)-7-(4-diazo-3-oxobutyl)-1-(4-[^18F]fluorophenyl)-10-isopropyl-5,8-dioxo-3-oxa-2,6,9-triazaundec-1-en-11-oyl)pyrrolidine-2-carboxamido)-4-methylpentanoate]	specific and selective binding	no affinity	1 ± 1%	98 ± 1%	2 ± 0%	104 nM	Tumour activity after pretreatment with ERW1041E (MDA-MB-231 tumour; ERW1041E 50 mg/kg s.c. 30 min prior to tracer, 40–60 min, p = 0.06 vs baseline): 1.4 %ID/g; Background (muscle, right femur) activity (MDA-MB-231 tumour; baseline, 40–60 min time-frame): 0.8 %ID/g; Tumour activity with co-administered unlabelled 2 (MDA-MB-231 tumour; self-blocking, 2 (50 μg, 75 nmol) co-administered, 40–60 min, p = 0.007): approximately 1.0 %ID/g; Metabolism in vivo ([3]; 15 min post injection): completely metabolised; Intact (%) [3, 8]: 0 ± 0 %; Non-polar (%) [3, 8]: 92 ± 3 %; Polar (%) [3, 8]: 8 ± 3 %
–	–	O=C(NC[C@@H]1CC(Br)=NO1)[C@@H]1CCCN1C(=O)OCc1cnc2ccccc2c1 [ERW1041E, Quinolin-3-ylmethyl (S)-2-((((S)-3-bromo-4,5-dihydroisoxazol-5-yl)methyl)carbamoyl)pyrrolidine-1-carboxylate]	–	–	–	–	–	–	Ki (TG2 [5]): 11000 nM; Inhibition of TG2 activity in mouse model of pulmonary hypertension (TG2 [6]; 50 mg/kg): inhibition of TG2 activity to background levels; Reduction of TG2 activity in pulmonary hypertension model (TG2 [6]; 30 min after administration): factor of four; Time of maximum TG2 inhibitory effect after administration (TG2 [6]): 30 min
56 ± 14%	24% and 24 ± 1%	C=C[11C](=O)NCCCC[C@H](NC(=O)Cc1ccccc1)C(=O)N1CCN(c2cccc(C)n2)CC1 [[^11C]1, (S)-N-(6-(4-(6-methylpyridin-2-yl)piperazin-1-yl)-6-oxo-5-(2-phenylacetamido)hexyl)[^11C]acrylamide]	specific and selective binding	no affinity	65 ± 7%	13 ± 4%	21 ± 3%	53 nM	Effect of ERW1041E pretreatment on tumour activity (MDA-MB-231 tumour; ERW1041E 50 mg/kg s.c. 30 min prior to tracer): significant increase in tumour activity; Time of peak tumour uptake after injection (MDA-MB-231 tumour; baseline): 5 to 10 min; Tumour uptake (MDA-MB-231 tumour; baseline, 40–60 min p.i., 5 MBq i.v.): approx. 0.5 %ID/g; Intact (%) ([3]; 45 min after i.v.): 29 ± 11%; Non-polar (%) ([3]; 45 min after i.v.): 6 ± 3%; Polar (%) ([3]; 45 min after i.v.): 65 ± 12%
–	–	CC(C)C[C@H](NC(=O)[C@@H]1CCCN1C(=O)[C@@H](NC(=O)[C@H](CCC(=O)C=[N+]=[N-])NC(=O)CO/N=C/c1ccc([18F])cc1)C(C)C)C(=O)O [[^18F]M1]	–	–	–	–	–	45 nM	–
